Values quoted from earlier work, collected in patent US6846495B2, “Compositions having improved delivery of actives” (The Procter & Gamble Company, priority 1999, dated 2005).

Conditions: intranasal formulations

COc1ccc2c(c1)[C@@]13CCCC[C@H]1[C@@H](C2)N(C)CC3 [Dextromethorphan, 3-methoxy-17-methylmorphinan]
bioavailability: substantial increases in bioavailability
